The test system of this data set is Pseudomonas aeruginosa PAO1 MB9798 (efflux+, IMP-1). Conditions: ratio MITC95 PA 9798/MITC95 PA 9799; imipenem at 2 μg/mL. The procedure, abridged:
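Isogenic PAO1 pair (efflux+ MB9798, efflux− MB9799, both IMP-1) tested by microbroth MIC with fixed imipenem and/or ceftazidime, usually at CLSI breakpoint, plus fixed class A/C inhibitor against AmpC. MBL inhibitor titrated; concentration restoring susceptibility recorded and fold difference between strains taken as efflux extent.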
As for `CN(C)S(=O)(=O)c1ccc(-c2cccc3sc(N)nc23)c(-c2nn[nH]n2)c1S(N)(=O)=O` [Example 151, 4-(2-aminobenzo[d]thiazol-4-yl)-N1,N1-dimethyl-3-(2H-tetrazol-5-yl)benzene-1,2-disulfonamide], the Efflux ratio was found to be 16.00.
The same measure for `CNS(=O)(=O)c1ccc(-c2cccc3sc(N)nc23)c(-c2nn[nH]n2)c1S(N)(=O)=O` [Example 152, 4-(2-aminobenzo[d]thiazol-4-yl)-N1-methyl-3-(2H-tetrazol-5-yl)benzene-1,2-disulfonamide]: 8.00; for `Nc1nc2c(-c3ccc(S(=O)(=O)NCC(=O)O)c(S(N)(=O)=O)c3-c3nn[nH]n3)cccc2s1` [Example 153, ((4-(2-aminobenzo[d]thiazol-4-yl)-2-sulfamoyl-3-(2H-tetrazol-5-yl)phenyl)sulfonyl)glycine]: 1.00.
Consider `Nc1nc2c(-c3ccc(S(=O)(=O)NC[C@@H](N)C(=O)O)c(S(N)(=O)=O)c3-c3nn[nH]n3)cccc2s1` [Example 154, (R)-2-amino-3-((4-(2-aminobenzo[d]thiazol-4-yl)-2-sulfamoyl-3-(2H-tetrazol-5-yl)phenyl)sulfonamido) propanoic acid], for which the Efflux ratio amounted to 0.50.
The same measure for `CS(=O)(=O)Nc1nc2c(-c3ccc(S(=O)(=O)N4CCNCC4)c(S(N)(=O)=O)c3-c3nn[nH]n3)cccc2s1` [Example 156, 3-(2-(Methylsulfonamido)benzo[d]thiazol-4-yl)-6-(piperazin-1-ylsulfonyl)-2-(2H-tetrazol-5-yl)benzenesulfonamide]: 2.00; for `Nc1nc2cccc(-c3ccc(S(=O)(=O)N4CCNCC4)c(S(N)(=O)=O)c3-c3nn[nH]n3)c2[nH]1` [Example 157, 3-(2-amino-3H-benzo[d]imidazol-4-yl)-6-(piperazin-1-ylsulfonyl)-2-(2H-tetrazol-5-yl)benzenesulfonamide]: 4.00; for `Nc1nc2c(-c3ccc(S(=O)(=O)N4CCNCC4)c(S(N)(=O)=O)c3-c3nn[nH]n3)cccc2o1` [Example 159, 3-(2-aminobenzo[d]oxazol-4-yl)-6-(piperazin-1-ylsulfonyl)-2-(2H-tetrazol-5-yl)benzenesulfonamide]: 2.00.
For the compound `NS(=O)(=O)c1c(S(=O)(=O)N2CCNCC2)ccc(-c2cccc3cn[nH]c23)c1-c1nnn[nH]1` [Example 160, 3-(1H-indazol-7-yl)-6-(piperazin-1-ylsulfonyl)-2-(1H-tetrazol-5-yl)benzenesulfonamide], the Efflux ratio is 4.00.
As to `Nc1nc2c(-c3ccc(S(=O)(=O)N[C@@H]4CCNC4)c(S(N)(=O)=O)c3-c3nn[nH]n3)cccc2[nH]1` [Example 161, 4-(2-amino-1H-benzo[d]imidazol-4-yl)-N^1—((R)-pyrrolidin-3-yl)-3-(2H-tetrazol-5-yl)benzene-1,2-disulfonamide], the Efflux ratio is recorded as 0.78.
Next, `Nc1nc2c(-c3ccc(S(=O)(=O)N[C@H]4CCNC4)c(S(N)(=O)=O)c3-c3nn[nH]n3)cccc2[nH]1` [Example 162, 4-(2-amino-1H-benzo[d]imidazol-4-yl)-N^1-((S)-pyrrolidin-3-yl)-3-(2H-tetrazol-5-yl)benzene-1,2-disulfonamide]: 0.87; `Cn1c(N)nc2c(-c3ccc(S(=O)(=O)N[C@H]4CCNC4)c(S(N)(=O)=O)c3-c3nn[nH]n3)cccc21` [Example 163, 4-(2-amino-1-methyl-1H-benzo[d]imidazol-4-yl)-N^1-((S)-pyrrolidin-3-yl)-3-(2H-tetrazol-5-yl)benzene-1,2-disulfonamide]: 1.00.
Turning to `Cn1c(N)nc2c(-c3ccc(S(=O)(=O)N[C@@H]4CCNC4)c(S(N)(=O)=O)c3-c3nn[nH]n3)cccc21` [Example 164, 4-(2-amino-1-methyl-1H-benzo[d]imidazol-4-yl)-N^1-((R)-pyrrolidin-3-yl)-3-(2H-tetrazol-5-yl)benzene-1,2-disulfonamide], the Efflux ratio was 1.00.
The same measure for `NC1CCC(c2ccc(S(N)(=O)=O)c(S(N)(=O)=O)c2-c2nnn[nH]2)CC1` (stereo not shown) [Example 165, 4-(4-aminocyclohexyl)-3-(1H-tetrazol-5-yl)benzene-1,2-disulfonamide]: 4.00; for `C[N+]1(C)CC[C@H](NS(=O)(=O)c2ccc(-c3cccc4[nH]c(N)nc34)c(-c3nn[n-]n3)c2S(N)(=O)=O)C1` [Example 166, (S)-5-(6-(2-amino-1H-benzo[d]imidazol-4-yl)-3-(N-(1,1-dimethylpyrrolidin-1-ium-3-yl)sulfamoyl)-2-sulfamoylphenyl)tetrazol-2-ide]: 1.00.
As for `Cn1c(N)nc2c(-c3ccc(S(=O)(=O)N[C@H]4CC[N+](C)(C)C4)c(S(N)(=O)=O)c3-c3nn[n-]n3)cccc21` [Example 167, (S)-5-(6-(2-amino-1-methyl-1H-benzo[d]imidazol-4-yl)-3-(N-(1,1-dimethylpyrrolidin-1-ium-3-yl)sulfamoyl)-2-sulfamoylphenyl)tetrazol-2-ide], the Efflux ratio came out at 2.00.
On to `Nc1nc2c(-c3ccc(S(=O)(=O)N[C@H]4CNC[C@H]4O)c(S(N)(=O)=O)c3-c3nnn[nH]3)cccc2[nH]1` [Example 168, 4-(2-amino-1H-benzo[d]imidazol-4-yl)-N^1-((3S,4R)-4-hydroxypyrrolidin-3-yl)-3-(1H-tetrazol-5-yl)benzene-1,2-disulfonamide], for which the Efflux ratio is 0.70.
Take `Nc1nc2c(-c3ccc(S(=O)(=O)N[C@H]4CNC[C@@H]4O)c(S(N)(=O)=O)c3-c3nnn[nH]3)cccc2[nH]1` [Example 169, 4-(2-amino-1H-benzo[d]imidazol-4-yl)-N^1-((3S,4S)-4-hydroxypyrrolidin-3-yl)-3-(1H-tetrazol-5-yl)benzene-1,2-disulfonamide]: the Efflux ratio is recorded as 1.00.
Next, `Nc1nc2c(-c3ccc(S(=O)(=O)N[C@@H]4CNC[C@@H]4O)c(S(N)(=O)=O)c3-c3nnn[nH]3)cccc2[nH]1` [Example 170, 4-(2-amino-1H-benzo[d]imidazol-4-yl)-N^1-((3R,4S)-4-hydroxypyrrolidin-3-yl)-3-(1H-tetrazol-5-yl)benzene-1,2-disulfonamide]: 1.00; `Nc1nc2c(-c3ccc(S(=O)(=O)N[C@@H]4CNC[C@H]4O)c(S(N)(=O)=O)c3-c3nnn[nH]3)cccc2[nH]1` [Example 171, 4-(2-amino-1H-benzo[d]imidazol-4-yl)-N^1-((3R,4R)-4-hydroxypyrrolidin-3-yl)-3-(1H-tetrazol-5-yl)benzene-1,2-disulfonamide]: 0.50; `Nc1nc2c(-c3ccc(S(=O)(=O)N[C@H]4CN[C@H](CO)C4)c(S(N)(=O)=O)c3-c3nnn[nH]3)cccc2[nH]1` [Example 172, 4-(2-amino-1H-benzo[d]imidazol-4-yl)-N^1-((3R,5S)-5-(hydroxymethyl)pyrrolidin-3-yl)-3-(1H-tetrazol-5-yl)benzene-1,2-disulfonamide]: 0.50.
Next, `Nc1nc2c(-c3ccc(S(=O)(=O)N[C@H]4CN[C@@H](CO)C4)c(S(N)(=O)=O)c3-c3nnn[nH]3)cccc2[nH]1` [Example 173, 4-(2-amino-1H-benzo[d]imidazol-4-yl)-N^1-((3R,5R)-5-(hydroxymethyl)pyrrolidin-3-yl)-3-(1H-tetrazol-5-yl)benzene-1,2-disulfonamide]: 1.00; `Nc1nc2c(-c3ccc(S(=O)(=O)N[C@@H]4CN[C@@H](CO)C4)c(S(N)(=O)=O)c3-c3nnn[nH]3)cccc2[nH]1` [Example 174, 4-(2-amino-1H-benzo[d]imidazol-4-yl)-N^1-((3S,5R)-5-(hydroxymethyl)pyrrolidin-3-yl)-3-(1H-tetrazol-5-yl)benzene-1,2-disulfonamide]: 1.00.
The same measure for `Nc1nc2c(-c3ccc(S(=O)(=O)N[C@@H]4CN[C@H](CO)C4)c(S(N)(=O)=O)c3-c3nnn[nH]3)cccc2[nH]1` [Example 175, 4-(2-amino-1H-benzo[d]imidazol-4-yl)-N^1 - ((3S,5S)-5-(hydroxymethyl)pyrrolidin-3-yl)-3-(1H-tetrazol-5-yl)benzene-1,2-disulfonamide]: 0.50; for `Nc1nc2c(-c3ccc(S(=O)(=O)N[C@@]4(CO)CCNC4)c(S(N)(=O)=O)c3-c3nnn[nH]3)cccc2[nH]1` [Example 176, (S)-4-(2-amino-1H-benzo[d]imidazol-4-yl)-N1-(3-(hydroxymethyl)pyrrolidin-3-yl)-3-(1H-tetrazol-5-yl)benzene-1,2-disulfonamide]: 1.00.
Take `Nc1nc2c(-c3ccc(S(=O)(=O)N[C@]4(CO)CCNC4)c(S(N)(=O)=O)c3-c3nnn[nH]3)cccc2[nH]1` [Example 177, (R)-4-(2-amino-1H-benzo[d]imidazol-4-yl)-N1-(3-(hydroxymethyl)pyrrolidin-3-yl)-3-(1H-tetrazol-5-yl)benzene-1,2-disulfonamide]: the Efflux ratio came out at 0.50.
The same measure for `Nc1nc2c(-c3ccc(S(=O)(=O)N[C@@H]4CCCNC4)c(S(N)(=O)=O)c3-c3nnn[nH]3)cccc2[nH]1` [Example 178, (R)-4-(2-amino-1H-benzo[d]imidazol-4-yl)-N^1-(piperidin-3-yl)-3-(1H-tetrazol-5-yl)benzene-1,2-disulfonamide]: 1.00; for `Nc1nc2c(-c3ccc(S(=O)(=O)N[C@H]4CCCNC4)c(S(N)(=O)=O)c3-c3nnn[nH]3)cccc2[nH]1` [Example 179, (S)-4-(2-amino-1H-benzo[d]imidazol-4-yl)-N^1-(piperidin-3-yl)-3-(1H-tetrazol-5-yl)benzene-1,2-disulfonamide]: 2.00.
For `NCCNS(=O)(=O)c1ccc(-c2cc(F)cc3[nH]c(N)nc23)c(-c2nnn[nH]2)c1S(N)(=O)=O` [Example 180, 4-(2-amino-6-fluoro-1H-benzo[d]imidazol-4-yl)-N^1-(2-aminoethyl)-3-(1H-tetrazol-5-yl)benzene-1,2-disulfonamide], the Efflux ratio stood at 0.50.

The record behind these values is US10544130B2, “Metallo-beta-lactamase inhibitors” (priority 2015, dated 2020).
